# Measurements reported in publication PMC4138991, “Building a Better Dynasore: The Dyngo Compounds Potently Inhibit Dynamin and Endocytosis” (Traffic (Copenhagen, Denmark), 2013).
# Experiments:
# [1] = tested on: rat brain synaptosomes; assay: Synaptic vesicle endocytosis: FM4-64 uptake in synaptosomes; details: read-out: SVE IC50
# [2] = target: T1, human serum albumin (Homo sapiens, UniProt P02768); assay: Plasma protein binding on immobilized human serum albumin column; format: in vitro ADME; details: immobilized HSA column
# T1 construct: purchased ChromTech Chiral‐HSA, 50 × 3.0 mm, 5 µm
# T1 sequence (P02768 25-609): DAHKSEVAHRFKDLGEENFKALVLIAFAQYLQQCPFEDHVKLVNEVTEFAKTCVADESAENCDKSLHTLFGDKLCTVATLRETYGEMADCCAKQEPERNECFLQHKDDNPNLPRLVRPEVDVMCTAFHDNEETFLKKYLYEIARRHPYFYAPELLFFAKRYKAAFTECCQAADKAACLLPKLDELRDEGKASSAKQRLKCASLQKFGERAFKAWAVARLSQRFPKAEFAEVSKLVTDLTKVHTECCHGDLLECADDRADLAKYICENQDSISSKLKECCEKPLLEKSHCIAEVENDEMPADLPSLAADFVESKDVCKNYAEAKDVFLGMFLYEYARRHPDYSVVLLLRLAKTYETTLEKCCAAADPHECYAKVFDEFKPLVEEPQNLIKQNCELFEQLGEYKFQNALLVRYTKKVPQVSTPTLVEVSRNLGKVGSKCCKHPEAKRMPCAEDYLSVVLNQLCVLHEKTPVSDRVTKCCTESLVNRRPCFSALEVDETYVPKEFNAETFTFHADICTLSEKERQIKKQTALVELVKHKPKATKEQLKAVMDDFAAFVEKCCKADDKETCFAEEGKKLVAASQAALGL
# From the text: Plasma protein binding was estimated using an immobilized human serum albumin column (ChromTech Chiral‐HSA, 50 × 3.0 mm, 5 µm) with gradient elution based on a previously published method 56.
# [3] = tested on: Calyx of Held; assay: Membrane capacitance measurements at the Calyx of Held in brain slices; format: cell-based, mice; details: for SVE (decay of membrane capacitance): direct application by puffing pipette: 300 μM 4a, 800 μM dynasore
# [4] = MTT growth inhibition assay; format: cell-based; details: human
# Method: A 30 mM stock solution of each test compound was prepared in dimethylsulphoxide (DMSO) and stored at −20 °C. All cell lines were cultured at 37 °C, under 5% CO2 in air and were maintained in Dulbecco’s modified Eagle’s medium (Trace Biosciences, Australia) supplemented with 10% foetal bovine serum, 10 mM sodium bicarbonate penicillin (100 IU/mL), streptomycin (100 µg/mL), and glutamine (4 mM). Cells in logarithmic growth were transferred to 96-well plates. Cytotoxicity was determined by plating cells in duplicate in […] medium at a density of 2,500–4,000 cells/well. On day 0, (24 h after plating) when the cells were in logarithmic growth, 100 μL medium with or without the test agent was added to each well. After 72 h drug exposure, growth inhibitory effects were evaluated using the MTT (3-[4,5-dimethyltiazol-2-yl]-2,5-diphenyl-tetrazolium bromide) assay and absorbance read at 540 nm. A dose response curve was produced allowing for the calculation of a GI50 value. This value is the drug concentration at which cell growth is inhibited by 50% based on the difference between the optical density values on day 0 and those at the end of drug exposure.
# [5] = target: T2, clathrin heavy chain binding to amphiphysin 1 (Homo sapiens, UniProt Q00610); assay: ELISA-based clathrin binding assay; details: up to 300 μM
# T2 construct: recombinant GST-tagged clathrin heavy chain TD (amino acids 1-364); made in house; host or cells: bacteria
# T2 sequence (Q00610 1-364): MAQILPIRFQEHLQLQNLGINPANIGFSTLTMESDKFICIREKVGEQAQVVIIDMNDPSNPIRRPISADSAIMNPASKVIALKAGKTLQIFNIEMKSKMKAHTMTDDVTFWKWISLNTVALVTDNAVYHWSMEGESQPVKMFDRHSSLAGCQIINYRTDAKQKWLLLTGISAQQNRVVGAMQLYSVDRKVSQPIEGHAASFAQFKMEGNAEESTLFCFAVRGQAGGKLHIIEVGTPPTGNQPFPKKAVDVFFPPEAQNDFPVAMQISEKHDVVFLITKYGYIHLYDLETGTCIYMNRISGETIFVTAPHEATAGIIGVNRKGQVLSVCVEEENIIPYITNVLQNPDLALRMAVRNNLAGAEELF
# Method: The assay for the interaction of amphiphysin with either clathrin or AP2 was based on our previous report (11). Bacterially expressed recombinant purified His6-tagged amphiphysin 1 PRD+CLAP domains (amino acids 250-578) in screening buffer (20 mM HEPES, pH 7.4, 50 mM NaCl, 1 mM DTT, 1 mM PMSF) was added to a 384 well ELISA plate (high-binding PS Microplate, Greiner Bio-One) and bound to the plastic at room temperature for 1 hr. Non-specific binding was reduced by overnight incubation with 50 µL blocking buffer (20 mM HEPES, pH 7.4, 50 mM NaCl, 1 mM PMSF, 2 % BSA, 2.5 % skim milk) at 4 °C. Following extensive washes (with 20 mM HEPES, pH 7.4, 50 mM NaCl, 0.05 % Tween 20), chemical compounds diluted in DMSO (10 µL) were added and incubated together with bacterially expressed recombinant GST-tagged clathrin heavy chain TD (amino acids 1-364) or GST-AP-2 α-appendage (amino acids 702–938) for 1 hr at room temperature in screening buffer. This incubation was in the presence of test compounds diluted in 1% DMSO or 1% DMSO alone as a control. After 3 washes, horseradish peroxidase-coupled anti-GST antibodies were added in screening buffer and the plate incubated for 15 min at room temperature. Following additional washes, 50 µL TMB (3,3′,5,5′-tetramethylbenzidine) (Pierce Biotechnology) chromogenic substrate of horseradish peroxidase was added and the plate was incubated for 20 min before the reaction was terminated by adding 50 µL 1 N sulfuric acid to produce a yellow colour. The amount of bound protein was determined by spectrophotometric measurement in a plate reader in triplicates. Relative binding was calculated as a percentage of the DMSO control.
# [6] = MCF-7 breast cancer cells, MCF-7, MTT
Structure (SMILES),IC50 [1],bound to human serum albumin [2],exocytosis (capacitance jump) ([3]; 300 μM 4a in puffing pipette),SVE (decay of membrane capacitance) [3],GI50 at 72 h ([4]; A431 skin cancer cells),GI50 at 72 h ([4]; BE2-C neuroblastoma cells),GI50 at 72 h ([4]; DU145 prostate cancer cells),GI50 at 72 h ([4]; H460 lung cancer cells),GI50 at 72 h ([4]; HT29 colon cancer cells),"GI50 at 72 h [4, 6]",GI50 at 72 h ([4]; SJ-G2 glioblastoma cells),GI50 at 72 h ([4]; SW480 colon cancer cells),GI50 at 72 h ([4]; ovarian cancer cells),inhibition of clathrin heavy chain binding to amphiphysin 1 [5]
"O=C(N/N=C/c1cc(O)c(O)cc1O)c1cc2ccccc2cc1O [4a, (E)-3-Hydroxy-N'-(2,4,5-trihydroxybenzylidene) -2-naphthohydrazide]",26.8 µM,99.4 % bound,did not acutely affect exocytosis,complete blockade of SVE,> 50 µM,> 50 µM,> 50 µM,> 50 µM,> 50 µM,> 50 µM,> 50 µM,> 50 µM,> 50 µM,None of the compounds inhibited this interaction
"O=C(N/N=C/c1cccc(O)c1O)c1cc2ccccc2cc1O [6a, (E)-N'-(2,3-Dihydroxybenzylidene)-3-hydroxy-2-naphthohydrazide]",70.1 µM,99.7 % bound,–,–,> 50 µM,> 50 µM,> 50 µM,> 50 µM,> 50 µM,> 50 µM,> 50 µM,> 50 µM,> 50 µM,None of the compounds inhibited this interaction
"O=C(N/N=C/c1ccc(O)c(O)c1)c1cc2ccccc2cc1O [Dynasore, (E)-N'-(3,4-Dihydroxybenzylidene)-3-hydroxy-2-naphthohydrazide]",184 µM,98.8 % bound,–,inhibits SVE,14 ± 0.6 µM,8.6 ± 0.4 µM,23 ± 1.7 µM,21 ± 1.9 µM,12 ± 1.3 µM,14 ± 0.3 µM,12 ± 1.7 µM,3.6 ± 0.1 µM,6.7 ± 0.4 µM,None of the compounds inhibited this interaction
